Results taken from ChEMBL document CHEMBL1201862, “PubChem BioAssay data set” (2004).
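Tested at 5 concentrations; 48 h exposure; 96-well plates; endpoints linearly interpolated, else capped at highest concentration. The concentration for 50% growth inhibition is given as GI50.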 Active and inactive are the calls of the source. Rule as the data show it: active = GI50 up to about 1.1 µM and inactive = higher. Where a SMILES comes first, the peptide text is derived from it. The star is where a group is joined. Boc = CC(C)(C)OC(=O)*; OBn = c1ccc(CO*)cc1

Assays:
Assay in all cases: NCI tumour cell line growth inhibition, 48 h
[1] = tested on: MDA-N
[2] = tested on: HT-29
[3] = tested on: SNB-19
[4] = tested on: OVCAR-3
[5] = tested on: SF-295
[6] = tested on: NCI-H226
[7] = tested on: EKVX
[8] = tested on: 786-0
[9] = tested on: COLO 205
[10] = tested on: SF-268
[11] = tested on: HOP-62
[12] = tested on: SW-620
[13] = tested on: UACC-257
[14] = tested on: MDA-MB-435
[15] = tested on: LOX IMVI
[16] = tested on: HCT-116
[17] = tested on: SR
[18] = tested on: SK-OV-3
[19] = tested on: A549
[20] = tested on: MDA-MB-231
[21] = tested on: MOLT-4
[22] = tested on: OVCAR-5
[23] = tested on: KM12
[24] = tested on: HL-60
[25] = tested on: TK-10
[26] = tested on: ACHN
[27] = tested on: U-251
[28] = tested on: BT-549
[29] = tested on: A498
[30] = tested on: SN12C
[31] = tested on: CCRF-CEM
[32] = tested on: SK-MEL-28
[33] = tested on: NCI-H522
[34] = tested on: IGROV-1
[35] = tested on: NCI/ADR-RES
[36] = tested on: OVCAR-8
[37] = tested on: UO-31
[38] = tested on: T47D
[39] = tested on: NCI-H460
[40] = tested on: Malme-3M
[41] = tested on: HCT-15
[42] = tested on: OVCAR-4
[43] = tested on: PC-3
[44] = tested on: SNB-75
[45] = tested on: NCI-H23
[46] = tested on: K562
[47] = tested on: CAKI-1
[48] = tested on: UACC-62
[49] = tested on: SF-539
[50] = tested on: HCC 2998
[51] = tested on: HOP-92
[52] = tested on: MCF7
[53] = tested on: RXF 393
[54] = tested on: DU-145
[55] = tested on: M14
[56] = tested on: SK-MEL-5
[57] = tested on: SK-MEL-2
[58] = tested on: Hs-578T

Cn1c(=O)oc2cc(C(O)CN3CCN(Cc4ccccn4)CC3)c(Cl)cc21 (stereo unspecified)
GI50 [1]: > 100 µM (inactive) | GI50 [2]: > 100 µM (inactive) | GI50 [3]: > 100 µM (inactive) | GI50 [4]: > 100 µM (inactive) | GI50 [5]: > 100 µM (inactive) | GI50 [6]: > 100 µM (inactive) | GI50 [7]: > 100 µM (inactive) | GI50 [8]: > 100 µM (inactive) | GI50 [9]: > 100 µM (inactive) | GI50 [10]: > 100 µM (inactive) | GI50 [11]: > 100 µM (inactive) | GI50 [12]: > 100 µM (inactive) | GI50 [13]: > 100 µM (inactive) | GI50 [14]: > 100 µM (inactive) | GI50 [15]: > 100 µM (inactive) | GI50 [16]: > 100 µM (inactive) | GI50 [17]: 23.3 µM (inactive) | GI50 [18]: > 100 µM (inactive) | GI50 [19]: > 100 µM (inactive) | GI50 [20]: > 100 µM (inactive) | GI50 [21]: > 100 µM (inactive) | GI50 [22]: > 100 µM (inactive) | GI50 [23]: > 100 µM (inactive) | GI50 [24]: > 100 µM (inactive) | GI50 [25]: > 100 µM (inactive) | GI50 [26]: > 100 µM (inactive) | GI50 [27]: > 100 µM (inactive) | GI50 [28]: > 100 µM (inactive) | GI50 [29]: > 100 µM (inactive) | GI50 [30]: > 100 µM (inactive) | GI50 [31]: > 100 µM (inactive) | GI50 [32]: > 100 µM (inactive) | GI50 [33]: > 100 µM (inactive) | GI50 [34]: > 100 µM (inactive) | GI50 [35]: 0.461 µM (active) | GI50 [36]: > 100 µM (inactive) | GI50 [37]: > 100 µM (inactive) | GI50 [38]: > 100 µM (inactive) | GI50 [39]: > 100 µM (inactive) | GI50 [40]: > 100 µM (inactive) | GI50 [41]: > 100 µM | GI50 [42]: > 100 µM (inactive) | GI50 [43]: > 100 µM (inactive) | GI50 [44]: 77.3 µM (inactive) | GI50 [45]: > 100 µM (inactive) | GI50 [46]: > 100 µM (inactive) | GI50 [47]: > 100 µM (inactive) | GI50 [48]: > 100 µM (inactive) | GI50 [49]: > 100 µM (inactive) | GI50 [50]: > 100 µM (inactive) | GI50 [51]: > 100 µM (inactive) | GI50 [52]: > 100 µM (inactive) | GI50 [53]: > 100 µM (inactive) | GI50 [54]: > 100 µM (inactive) | GI50 [55]: > 100 µM (inactive)

CC(C)CC(NC(=O)OC(C)(C)C)C(=O)N1CCCC1C(=O)OCc1ccccc1 (stereo not drawn) (Boc-Leu-Pro-OBn; configuration not given here)
GI50 [1]: > 100 µM (inactive) | GI50 [2]: 41.4 µM (inactive) | GI50 [3]: > 100 µM (inactive) | GI50 [4]: > 100 µM (inactive) | GI50 [5]: > 100 µM (inactive) | GI50 [56]: > 100 µM (inactive) | GI50 [6]: > 100 µM (inactive) | GI50 [7]: > 100 µM (inactive) | GI50 [8]: > 100 µM (inactive) | GI50 [9]: > 100 µM (inactive) | GI50 [10]: > 100 µM (inactive) | GI50 [12]: > 100 µM (inactive) | GI50 [13]: > 100 µM (inactive) | GI50 [14]: > 100 µM (inactive) | GI50 [15]: 40.4 µM (inactive) | GI50 [16]: > 100 µM (inactive) | GI50 [17]: 15.3 µM (inactive) | GI50 [18]: > 100 µM (inactive) | GI50 [19]: > 100 µM (inactive) | GI50 [20]: > 100 µM (inactive) | GI50 [22]: > 100 µM (inactive) | GI50 [23]: > 100 µM (inactive) | GI50 [25]: > 100 µM (inactive) | GI50 [26]: > 100 µM (inactive) | GI50 [27]: > 100 µM (inactive) | GI50 [28]: > 100 µM (inactive) | GI50 [29]: > 100 µM (inactive) | GI50 [30]: > 100 µM (inactive) | GI50 [32]: 76.7 µM (inactive) | GI50 [33]: > 100 µM (inactive) | GI50 [34]: > 100 µM (inactive) | GI50 [35]: > 100 µM (inactive) | GI50 [36]: > 100 µM (inactive) | GI50 [37]: 75 µM (inactive) | GI50 [38]: > 100 µM (inactive) | GI50 [40]: > 100 µM (inactive) | GI50 [41]: 63.4 µM | GI50 [42]: > 100 µM (inactive) | GI50 [43]: > 100 µM (inactive) | GI50 [44]: > 100 µM (inactive) | GI50 [45]: > 100 µM (inactive) | GI50 [57]: > 100 µM (inactive) | GI50 [46]: 35.2 µM (inactive) | GI50 [47]: > 100 µM (inactive) | GI50 [48]: > 100 µM (inactive) | GI50 [49]: > 100 µM (inactive) | GI50 [51]: > 100 µM (inactive) | GI50 [52]: 67.8 µM (inactive) | GI50 [53]: > 100 µM (inactive) | GI50 [54]: > 100 µM (inactive) | GI50 [55]: 99.3 µM (inactive)

NC(N)=NC(P(=O)(O)O)P(=O)(O)O
GI50 [1]: > 100 µM (inactive) | GI50 [3]: > 100 µM (inactive) | GI50 [4]: > 100 µM (inactive) | GI50 [5]: > 100 µM (inactive) | GI50 [56]: > 100 µM (inactive) | GI50 [6]: > 100 µM (inactive) | GI50 [7]: > 100 µM (inactive) | GI50 [8]: > 100 µM (inactive) | GI50 [9]: > 100 µM (inactive) | GI50 [10]: > 100 µM (inactive) | GI50 [11]: > 100 µM (inactive) | GI50 [13]: > 100 µM (inactive) | GI50 [15]: > 100 µM (inactive) | GI50 [16]: > 100 µM (inactive) | GI50 [18]: > 100 µM (inactive) | GI50 [19]: > 100 µM (inactive) | GI50 [20]: > 100 µM (inactive) | GI50 [22]: > 100 µM (inactive) | GI50 [23]: > 100 µM (inactive) | GI50 [25]: > 100 µM (inactive) | GI50 [26]: > 100 µM (inactive) | GI50 [28]: > 100 µM (inactive) | GI50 [33]: > 100 µM (inactive) | GI50 [34]: > 100 µM (inactive) | GI50 [35]: > 100 µM (inactive) | GI50 [58]: 0.254 µM (active) | GI50 [37]: > 100 µM (inactive) | GI50 [39]: > 100 µM (inactive) | GI50 [40]: > 100 µM (inactive) | GI50 [41]: > 100 µM | GI50 [43]: > 100 µM (inactive) | GI50 [45]: > 100 µM (inactive) | GI50 [47]: > 100 µM (inactive) | GI50 [48]: > 100 µM (inactive) | GI50 [49]: > 100 µM (inactive) | GI50 [50]: > 100 µM (inactive) | GI50 [52]: > 100 µM (inactive) | GI50 [53]: > 100 µM (inactive) | GI50 [54]: > 100 µM (inactive) | GI50 [55]: > 100 µM (inactive)
